{
  "source": "patent US20090221604A1",
  "about": "“Thiazole Compounds and Their Use as PGD2 Antagonists” (priority 2005, published 2009)",
  "origin": "cited, not measured here",
  "key": {"guinea pig": {"system": "guinea pig", "conditions": "after oral dosing"}, "[1]": {"system": "allergic conjunctivitis model"}, "[2]": {"system": "asthma model in the guinea pig"}},
  "data": [
    {"molecule": "CC1(C)[C@H]2C[C@H](C/C=C\\CCCC(=O)O)[C@@H](NC(=O)c3csc4ccc(O)cc34)[C@@H]1C2", "note": "[Example S-5751]", "values": [
      {"measurement": "early (sneezing, mucosal plasma exudation, nasal blockage) and late (eosinophil infiltration) phase nasal responses", "setting": "guinea pig", "value": "inhibited"},
      {"measurement": "allergen-induced plasma exudation in the conjunctiva", "setting": "[1]", "value": "alleviated"},
      {"measurement": "antigen-induced eosinophil infiltration into the lung", "setting": "[2]", "value": "alleviated"}
    ]}
  ]
}
